Measured values published in article PMC11277018, “Recombinant Expression and Characterization of a Novel Thermo-Alkaline Lipase with Increased Solvent Stability from the Antarctic Thermophilic Bacterium Geobacillus sp. ID17” (International Journal of Molecular Sciences, 2024).
Read-outs that look alike come from different tables or passages of the source.

Test system: T1, Lip7
T1 construct: theoretical 43 kDa, 47 kDa by SEC, 37 kDa by SDS-PAGE; monomer
Assay: spectrophotometric p-nitrophenol release, allosteric sigmoidal fit
Assay type: biochemical, Geobacillus sp. ID17
Conditions: 25 °C, pH 8.0, 50 mM potassium phosphate, read-out: K1/2
From the text: spectrophotometric p-nitrophenol release, allosteric sigmoidal fit on Lip7

For CCCCCCCCCCCCCC(=O)Oc1ccc([N+](=O)[O-])cc1 [p-nitrophenyl myristate], the Km (2% (v/v) Triton X-100, Hill n 3.2 ± 0.6) was 1400 ± 100 µM.

In the case of CCCCCCCC(=O)Oc1ccc([N+](=O)[O-])cc1 [p-nitrophenyl octanoate], the Km (2% (v/v) Triton X-100, Hill n 2.4 ± 0.8) is reported as 1600 ± 300 µM.

Work on CCCCCCCCCC(=O)Oc1ccc([N+](=O)[O-])cc1 [p-nitrophenyl decanoate] yielded a Km (2% (v/v) Triton X-100, Hill n 3.1 ± 1.4) of 2200 ± 300 µM.

For CC(=O)Oc1ccc([N+](=O)[O-])cc1 [p-nitrophenyl acetate], the Km (2% (v/v) Triton X-100, Hill n 1.9 ± 0.5) was 3400 ± 700 µM.

In the case of CCCCCCCCCCCC(=O)Oc1ccc([N+](=O)[O-])cc1 [p-nitrophenyl laurate], the Km (2% (v/v) Triton X-100 (mixed micelles; interfacial), Hill n 1.8 ± 0.4) is reported as 1700 ± 400 µM.
